Columns and labels:
[1] = system: A549-ACE2 infected with SARS-CoV-2; assay: morphology score (similarity to uninfected cells); higher = more like uninfected cells; details: 24 h
A549-ACE2 = assay: drug-induced phospholipidosis relative to tamoxifen; higher = more phospholipidosis
[2] = system: A549-ACE2 infected with SARS-CoV-2; assay: SARS-CoV-2 infection rate relative to DMSO; higher = more infection; details: 24 h
Caco-2 [3] = assay: relative viability EC50 (midpoint between 100% and the lowest measured viability); higher = less toxic; details: 72 h
Calu-3 [4] = assay: as above; details: 72 h
HepG2 [5] = assay: as above; details: 72 h
U2OS [6] = assay: as above; details: 72 h
Caco-2 [7] = assay: cell viability relative to DMSO; higher = less toxic; details: 72 h
Calu-3 [8] = assay: as above; details: 72 h
HepG2 [9] = assay: as above; details: 72 h
U2OS [10] = assay: as above; details: 72 h
[11] = system: A549-ACE2 infected with SARS-CoV-2; assay: cell count relative to DMSO; higher = less toxic; details: 24 h
Caco-2 [12] = assay: drug sensitivity score (DSS) for viability; higher = more toxic; extreme values may be limits of the assay; details: 72 h
Calu-3 [13] = assay: as above; details: 72 h
HepG2 [14] = assay: as above; details: 72 h
U2OS [15] = assay: as above; details: 72 h
Vero E6 [16] = assay: relative viability EC50 (midpoint between 100% and the lowest measured viability); higher = less toxic; details: 72 h
Vero E6 [17] = assay: cell viability relative to DMSO; higher = less toxic; details: 72 h
Vero E6 [18] = assay: drug sensitivity score (DSS) for viability; higher = more toxic; extreme values may be limits of the assay; details: 72 h

Nc1nccc(Oc2ccc(NC(=O)c3c[nH]cc(-c4ccc(F)cc4)c3=O)cc2F)c1Cl [metatinib]
Details | SARS-CoV-2 infection rate, [2] [%] | cell count, [11] [%] | cell viability, Caco-2 [7] [%] | cell viability, Calu-3 [8] [%] | cell viability, HepG2 [9] [%] | cell viability, U2OS [10] [%] | morphology score, [1]
1 nM | – | – | 100 | 91.4 | 104 | 96.2 | –
10 nM | – | – | 104 | 96.5 | 106 | 102 | –
100 nM | – | – | 92.6 | 95.5 | 101 | 100 | –
0.3 µM | 101 | 95 | – | – | – | – | -0.24
1000 nM | – | – | 104 | 95.3 | 85.6 | 99.2 | –
3 µM | 91 | 102 | – | – | – | – | -0.08
10 µM | 97 | 106 | – | – | – | – | 0.16
10000 nM | – | – | 80 | 96.3 | 37.7 | 94.9 | –
30 µM | 60 | 60 | – | – | – | – | 0.34

drug-induced phospholipidosis [%], A549-ACE2
Details | 0.3 µM | 0.833333 µM | 3.33333 µM | 6.66667 µM | 10 µM | 30 µM
24 h | 2.65 | 1.25 | 4.8 | 18.8 | 23.4 | 32.3
48 h | 4.96 | -2.22 | -0.29 | 7.93 | 12.6 | 20.2
72 h | 2.59 | -0.924 | 2.59 | 8.07 | 10.8 | 22.5

Details | drug sensitivity score | relative viability EC50 [µM]
Caco-2 [3] | – | > 10
Caco-2 [12] | 0.4 | –
Calu-3 [4] | – | > 10
Calu-3 [13] | 0 | –
HepG2 [5] | – | 1.61
HepG2 [14] | 5.7 | –
U2OS [6] | – | > 10
U2OS [15] | 0 | –

COCCOc1ccc(N2CCN(CCn3ncc4c3nc(N)n3nc(-c5ccco5)nc43)CC2)cc1 [preladenant]
Details | drug sensitivity score | relative viability EC50 [µM]
Caco-2 [3] | – | > 10
Caco-2 [12] | 0 | –
Calu-3 [4] | – | > 10
Calu-3 [13] | 0 | –
HepG2 [5] | – | > 10
HepG2 [14] | 0 | –
U2OS [6] | – | > 10
U2OS [15] | 0 | –
Vero E6 [16] | – | > 10
Vero E6 [18] | 0 | –

cell viability [%]
Details | Caco-2 [7] | Calu-3 [8] | HepG2 [9] | U2OS [10] | Vero E6 [17]
1 nM | 98.1 | 106 | 97 | 97.6 | 91.2
10 nM | 99 | 112 | 105 | 101 | 99.5
100 nM | 98.1 | 97.2 | 94 | 95.3 | 97.7
1000 nM | 91.8 | 92.3 | 99.6 | 95.1 | 102
10000 nM | 93.1 | 107 | 93.2 | 96.9 | 99.6

CC[N+](C)(CC)CCC[n+]1c(-c2ccccc2)c2cc(N)ccc2c2ccc(N)cc21 [propidium-iodide]
Details | drug sensitivity score | relative viability EC50 [µM]
Caco-2 [3] | – | > 10
Caco-2 [12] | 1.5 | –
Calu-3 [4] | – | > 10
Calu-3 [13] | 0 | –
HepG2 [5] | – | > 10
HepG2 [14] | 1.2 | –
U2OS [6] | – | > 10
U2OS [15] | 0.3 | –
Vero E6 [16] | – | > 10
Vero E6 [18] | 0 | –

cell viability [%]
Details | Caco-2 [7] | Calu-3 [8] | HepG2 [9] | U2OS [10] | Vero E6 [17]
1 nM | 91.3 | 100 | 93.8 | 99.2 | 96.8
10 nM | 99.2 | 99.6 | 104 | 103 | 99.5
100 nM | 93.1 | 102 | 90.8 | 98.4 | 98.3
1000 nM | 95.3 | 104 | 90.4 | 99.8 | 96
10000 nM | 75.7 | 92.3 | 80.1 | 83.7 | 95.7

NC(=O)c1cnccn1 [pyrazinamide]
Details | drug sensitivity score | relative viability EC50 [µM]
Caco-2 [3] | – | > 10
Caco-2 [12] | 0 | –
Calu-3 [4] | – | > 10
Calu-3 [13] | 0 | –
HepG2 [5] | – | > 10
HepG2 [14] | 0 | –
U2OS [6] | – | > 10
U2OS [15] | 0 | –
Vero E6 [16] | – | > 10
Vero E6 [18] | 0 | –

cell viability [%]
Details | Caco-2 [7] | Calu-3 [8] | HepG2 [9] | U2OS [10] | Vero E6 [17]
1 nM | 104 | 99.5 | 103 | 93.7 | 105
10 nM | 120 | 100 | 103 | 101 | 93.5
100 nM | 92.8 | 94.2 | 105 | 98 | 106
1000 nM | 107 | 104 | 97.9 | 104 | 95.3
10000 nM | 89.8 | 93 | 103 | 96 | 104

O=C(O)c1cccnc1C(=O)O [quinolinic-acid]
Details | drug sensitivity score | relative viability EC50 [µM]
Caco-2 [3] | – | > 10
Caco-2 [12] | 0 | –
Calu-3 [4] | – | > 10
Calu-3 [13] | 0 | –
HepG2 [5] | – | > 10
HepG2 [14] | 0 | –
U2OS [6] | – | > 10
U2OS [15] | 0 | –
Vero E6 [16] | – | > 10
Vero E6 [18] | 0 | –

cell viability [%]
Details | Caco-2 [7] | Calu-3 [8] | HepG2 [9] | U2OS [10] | Vero E6 [17]
1 nM | 103 | 91.5 | 105 | 98.2 | 108
10 nM | 110 | 105 | 99.5 | 103 | 97.4
100 nM | 96.8 | 97.1 | 97.6 | 98.6 | 108
1000 nM | 103 | 100 | 102 | 102 | 99.2
10000 nM | 90.3 | 101 | 97.8 | 97.7 | 102

COC(=O)[C@H]1[C@H]2C[C@@H]3c4[nH]c5cc(OC)ccc5c4CCN3C[C@H]2C[C@@H](OC(=O)c2cc(OC)c(OC)c(OC)c2)[C@@H]1OC [reserpine]
Details | drug sensitivity score | relative viability EC50 [µM]
Caco-2 [3] | – | > 10
Caco-2 [12] | 0 | –
Calu-3 [4] | – | > 10
Calu-3 [13] | 0 | –
HepG2 [5] | – | > 10
HepG2 [14] | 0 | –
U2OS [6] | – | > 10
U2OS [15] | 0 | –
Vero E6 [16] | – | > 10
Vero E6 [18] | 0 | –

cell viability [%]
Details | Caco-2 [7] | Calu-3 [8] | HepG2 [9] | U2OS [10] | Vero E6 [17]
1 nM | 110 | 107 | 106 | 98 | 112
10 nM | 90.1 | 92.5 | 93.5 | 97.7 | 95.2
100 nM | 96.4 | 109 | 81.3 | 95.8 | 96.6
1000 nM | 91.9 | 102 | 96 | 94.8 | 104
10000 nM | 101 | 111 | 96.6 | 99.2 | 97.1

From the supplement of paper PMC13380429
